# Experimental data published in US20190322676A1, “CERAMIDE GALACTOSYLTRANSFERASE INHIBITORS FOR THE TREATMENT OF DISEASE” (BioMarin Pharmaceutical Inc., priority 2016, published 2019).
# Where a name gives a salt, the structure may show the parent alone.
# Molecular target: T1, human CGT (ceramide galactosyltransferase), CHO/CGT lysate (Homo sapiens, UniProt Q16880)
# T1 construct: Full-length human CGT cDNA was cloned into the BamH1/Xho1 site of pcDNA3.1 (+); expressed in transfected cells; host or cells: Chinese hamster ovary (CHO) cells; lysate prepared with M-PER
# T1 sequence (Q16880 21-541): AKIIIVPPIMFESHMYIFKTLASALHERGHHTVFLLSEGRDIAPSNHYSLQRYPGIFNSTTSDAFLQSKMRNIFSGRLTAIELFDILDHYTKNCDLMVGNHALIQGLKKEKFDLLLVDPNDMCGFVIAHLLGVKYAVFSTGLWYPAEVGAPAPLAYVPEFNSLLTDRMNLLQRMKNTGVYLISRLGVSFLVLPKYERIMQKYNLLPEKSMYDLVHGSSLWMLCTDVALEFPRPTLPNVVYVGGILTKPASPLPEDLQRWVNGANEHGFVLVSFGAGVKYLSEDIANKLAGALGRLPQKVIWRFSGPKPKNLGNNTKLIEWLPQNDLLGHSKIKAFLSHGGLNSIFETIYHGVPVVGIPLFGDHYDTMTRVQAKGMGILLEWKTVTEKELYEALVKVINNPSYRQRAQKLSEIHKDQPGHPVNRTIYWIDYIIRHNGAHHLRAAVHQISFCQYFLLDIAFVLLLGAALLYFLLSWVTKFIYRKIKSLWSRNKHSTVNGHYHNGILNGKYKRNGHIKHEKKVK
# Assay: CGT enzyme assay, RapidFire/MS/MS readout (Table 1 ranges with one asterisk *)
# Assay type: biochemical
# Conditions: RapidFire method (range with one asterisk *)
# Protocol: Full-length human CGT cDNA was cloned into the BamH1/Xho1 site of pcDNA3.1 (+) mammalian expression vector (V90-20, Invitrogen, Carlsbad, Calif.) and the plasmid was transfected into Chinese hamster ovary (CHO) cells. Lysate was prepared using M-PER (Mammalian Protein Extraction Reagent, ThermoFisher Scientific, Grand Island, N.Y.) in the presence of a protease inhibitor cocktail (P8340, Sigma, Saint Louis, Mo.). Each 100 mm dish (100% confluent, approximately 1×10^7 cells) was lysed with 250 μL of M-PER containing protease inhibitors. Protein concentration was determined using a Pierce BCA protein assay kit (ThermoFisher Scientific). Four micrograms of CHO/CGT lysate was incubated with various concentrations of a compound (0.001 μM-50 μM) in 10 mM HEPES (pH 7.2) containing 35 μM dioleoylphosphatidylcholine, 5 mM MgCl2, 5 mM MnCl2, 1% BSA, 15 mM KCl, 1 mM EGTA, 8 mM CHAPS, 10 μM C6-NBD-dihydro-ceramide and 17.5 μM UDP-galactose in a final reaction volume of 20 μL at 37° C. for 1 hour. The final concentration of DMSO was 0.5% in both compound-treated and mock-treated samples. Tween 80 (0.01%) was optionally added to the reaction mixture to help solubilize the compounds. Each individual reaction was diluted with 80 μL of methanol:acetronitrile (1:3) containing 5 μM N-docdecanoyl-NBD-galactosylceramide (internal standard) to stop the reaction. 200 μL H2O:acetonitile (1:1) was added to precipitate the protein. After sufficient mixing, the plates were centrifuged at 2469 g for 38 minutes, 200 μL of supernatant was transferred to a LC/MS 96-deep well plate and a second spin was performed at 2469 g for 10 minutes. The final supernatant was injected in triplicate for RapidFire/MS/MS analysis.
# Quantitative Analysis Using the RapidFire/MS/MS Method:
# The quantitative analysis of C6-NBD-dihydro-ceramide and C6-NBD-dihydro-galactosylceramide was performed on a Rapid Fire 360 high-throughput mass spectrometry system (Agilent Technologies, Palo Alto, Calif.) coupled with a API4000^+ triple quadrupole mass spectrometer (Applied Biosystems, Concord, Ontario, Canada). RapidFire software packages, including RapidFire Control panel, RapidFire UI and RapidFire Integrator (Agilent Technologies), were used to control the RapidFire instrument and to process data. Analyst 1.6.2 software packages (Applied Biosystems) were used to control the MS system and acquire MS data. […] of sample was loaded on a micro-scale C4 solid-phase extraction (SPE) cartridge (Agilent Technologies) and salts were removed using water supplemented with 0.1% formic acid at the flow rate of 1.5 mL/min for 3 sec. C6-NBD-dihydro-ceramide and C6-NBD-dihydro-galactosylceramide were co-eluted into the mass spectrometer using acetonitrile containing 0.1% formic acid at the flow rate of 1.0 mL/min for 3 sec. The total cycle time of one injection was 8 secs. The MS/MS detection was performed in ESI negative mode. The mass transition of C6-NBD-dihydro-galactosylceramide was m/z 752.6→678.6 using a −40 V collision energy, the mass transition of C6-NBD-dihydro-ceramide was m/z 590.6→115.8 using a −40 V collision energy and the mass transition of N-docdecanoyl-NBD-galactosylceramide was m/z 820.9→746.3 using a −45 V collision energy.
# The C6-NBD-dihydro-galactosylceramide reading was normalized first by dividing the peak area of C6-NBD-dihydro-galactosylceramide by the peak area of the internal standard, N-docdecanoyl-NBD-galactosylceramide. IC50 values (see Table 1, where data ranges with one asterix (*) correspond to analysis using the RapidFire/MS/MS method, and data ranges with two asterixes (**) correspond to analysis using the RapidFire/MS/MS method with 0.01% Tween added) were generated from sigmoidal dose-response curves (variable slope) with GraphPad Prism software (GraphPad Software, Inc., San Diego, Calif.) using the normalized peak areas of C6-NBD-dihydro-galactosylceramide or the percent inhibition of C6-NBD-dihydro-galactosylceramide accumulation relative to DMSO control. […]
row,Structure (SMILES),IC50
1,"NC1CC2CCC(C1)N2C(=O)[C@H](NS(=O)(=O)c1ccc(OCC2CCCCC2)cc1)C(F)(F)c1ccc(-c2ccccc2)cc1 (stereo partly drawn) [Compound 35-2, N-((2S)-1-([1,1′-biphenyl]-4-yl)-3-(3-amino-8-azabicyclo[3.2.1]octan-8-yl)-1,1-difluoro-3-oxopropan-2-yl)-4-(cyclohexylmethoxy) benzenesulfonamide trifluoroacetate]",10 to 30 µM
2,"NC1CC2CCC(C1)N2C(=O)[C@@H](NS(=O)(=O)c1ccc2cc(OC3CCCC3)ccc2c1)C(F)(F)c1ccc(-c2ccccc2)cc1 (stereo partly drawn) [Compound 36-1, N-((2R)-1-([1,1′-biphenyl]-4-yl)-3-(3-amino-8-azabicyclo[3.2.1]octan-8-yl)-1,1-difluoro-3-oxopropan-2-yl)-6-(cyclopentyloxy)naphthalene-2-sulfonamide trifluoroacetate]",< 1 µM
3,"NC1CC2CCC(C1)N2C(=O)[C@H](NS(=O)(=O)c1ccc2cc(OC3CCCC3)ccc2c1)C(F)(F)c1ccc(-c2ccccc2)cc1 (stereo partly drawn) [Compound 36-2, N-((2S)-1-([1,1′-biphenyl]-4-yl)-3-(3-amino-8-azabicyclo[3.2.1]octan-8-yl)-1,1-difluoro-3-oxopropan-2-yl)-6-(cyclopentyloxy)naphthalene-2-sulfonamide trifluoroacetate]",1 to 10 µM
4,"CN([C@H](C(=O)N1C2CCC1CC(N)C2)C(F)(F)c1ccc(Br)cc1)S(=O)(=O)c1ccc2cc(OC3CCCCC3)ccc2c1 (stereo partly drawn) [Compound 37-1, N-((2R)-3-(3-amino-8-azabicyclo[3.2.1]octan-8-yl)-1-(4-bromophenyl)-1,1-difluoro-3-oxopropan-2-yl)-6-(cyclohexyloxy)-N-methylnaphthalene-2-sulfonamide trifluoroacetate]",< 1 µM
5,"CN([C@@H](C(=O)N1C2CCC1CC(N)C2)C(F)(F)c1ccc(Br)cc1)S(=O)(=O)c1ccc2cc(OC3CCCCC3)ccc2c1 (stereo partly drawn) [Compound 37-2, N-((2S)-3-(3-amino-8-azabicyclo[3.2.1]octan-8-yl)-1-(4-bromophenyl)-1,1-difluoro-3-oxopropan-2-yl)-6-(cyclohexyloxy)-N-methylnaphthalene-2-sulfonamide trifluoroacetate]",30 to 100 µM
6,"NC1CC2CCC(C1)N2C(=O)[C@@H](NS(=O)(=O)c1ccc2cc(OC3CCCC3)ccc2c1)C(F)(F)c1ccc2cc(Br)ccc2c1 (stereo partly drawn) [Compound 38-1, N-((2R)-3-(3-amino-8-azabicyclo[3.2.1]octan-8-yl)-1-(6-bromonaphthalen-2-yl)-1,1-difluoro-3-oxopropan-2-yl)-6-(cyclopentyloxy) naphthalene-2-sulfonamide trifluoroacetate]",1 to 10 µM
7,"NC1CC2CCC(C1)N2C(=O)[C@H](NS(=O)(=O)c1ccc2cc(OC3CCCC3)ccc2c1)C(F)(F)c1ccc2cc(Br)ccc2c1 (stereo partly drawn) [Compound 38-2, N-((2S)-3-(3-amino-8-azabicyclo[3.2.1]octan-8-yl)-1-(6-bromonaphthalen-2-yl)-1,1-difluoro-3-oxopropan-2-yl)-6-(cyclopentyloxy)naphthalene-2-sulfonamide trifluoroacetate]",1 to 10 µM
8,"NC1CC2CCC(C1)N2C(=O)[C@@H](NS(=O)(=O)c1ccc(OCC2CCCC2)cc1)C(F)(F)c1ccc2cc(Br)ccc2c1 (stereo partly drawn) [Compound 39-1, N-((2R)-3-(3-amino-8-azabicyclo[3.2.1]octan-8-yl)-1-(6-bromonaphthalen-2-yl)-1,1-difluoro-3-oxopropan-2-yl)-4-(cyclopentylmethoxy) benzenesulfonamide trifluoroacetate]",1 to 10 µM
9,"NC1CC2CCC(C1)N2C(=O)[C@H](NS(=O)(=O)c1ccc(OCC2CCCC2)cc1)C(F)(F)c1ccc2cc(Br)ccc2c1 (stereo partly drawn) [Compound 39-2, N-((2S)-3-(3-amino-8-azabicyclo[3.2.1]octan-8-yl)-1-(6-bromonaphthalen-2-yl)-1,1-difluoro-3-oxopropan-2-yl)-4-(cyclopentylmethoxy)benzenesulfonamide trifluoroacetate]",10 to 30 µM
10,"NC1CC2CCC(C1)N2C(=O)[C@@H](NS(=O)(=O)c1ccc(OCC2CCCCC2)cc1)C(F)(F)c1ccc2cc(Br)ccc2c1 (stereo partly drawn) [Compound 40-1, N-((2R)-3-(3-amino-8-azabicyclo[3.2.1]octan-8-yl)-1-(6-bromonaphthalen-2-yl)-1,1-difluoro-3-oxopropan-2-yl)-4-(cyclohexylmethoxy) benzenesulfonamide trifluoroacetate]",1 to 10 µM
11,"NC1CC2CCC(C1)N2C(=O)[C@H](NS(=O)(=O)c1ccc(OCC2CCCCC2)cc1)C(F)(F)c1ccc2cc(Br)ccc2c1 (stereo partly drawn) [Compound 40-2, N-((2S)-3-(3-amino-8-azabicyclo[3.2.1]octan-8-yl)-1-(6-bromonaphthalen-2-yl)-1,1-difluoro-3-oxopropan-2-yl)-4-(cyclohexylmethoxy)benzenesulfonamide trifluoroacetate]",10 to 30 µM
12,"NC1CC2CCC(C1)N2C(=O)[C@@H](NC(=O)[C@@H](O)c1ccc2cc(OC3CCCC3)ccc2c1)C(F)(F)c1ccc(Br)cc1 (stereo partly drawn) [Compound 41-3, (2S)—N-((2R)-3-(3-amino-8-azabicyclo[3.2.1]octan-8-yl)-1-(4-bromophenyl)-1,1-difluoro-3-oxopropan-2-yl)-2-(6-(cyclopentyloxy)naphthalen-2-yl)-2-hydroxyacetamide trifluoroacetate]",1 to 10 µM
13,"NC1CC2CCC(C1)N2C(=O)[C@H](NC(=O)[C@H](O)c1ccc2cc(OC3CCCC3)ccc2c1)C(F)(F)c1ccc(Br)cc1 (stereo partly drawn) [Compound 41-4, (2R)—N-((2S)-3-(3-amino-8-azabicyclo[3.2.1]octan-8-yl)-1-(4-bromophenyl)-1,1-difluoro-3-oxopropan-2-yl)-2-(6-(cyclopentyloxy)naphthalen-2-yl)-2-hydroxyacetamide trifluoroacetate]",30 to 100 µM
14,"NC1CC2CCC(C1)N2C(=O)[C@@H](NC(=O)[C@H](O)c1ccc2cc(OC3CCCC3)ccc2c1)C(F)(F)c1ccc(Br)cc1 (stereo partly drawn) [Compound 41-5, (2R)—N-((2R)-3-(3-amino-8-azabicyclo[3.2.1]octan-8-yl)-1-(4-bromophenyl)-1,1-difluoro-3-oxopropan-2-yl)-2-(6-(cyclopentyloxy)naphthalen-2-yl)-2-hydroxyacetamide trifluoroacetate]",10 to 30 µM
15,"NC1CC2CCC(C1)N2C(=O)[C@H](NC(=O)[C@@H](O)c1ccc2cc(OC3CCCC3)ccc2c1)C(F)(F)c1ccc(Br)cc1 (stereo partly drawn) [Compound 41-6, (2S)—N-((2S)-3-(3-amino-8-azabicyclo[3.2.1]octan-8-yl)-1-(4-bromophenyl)-1,1-difluoro-3-oxopropan-2-yl)-2-(6-(cyclopentyloxy)naphthalen-2-yl)-2-hydroxyacetamide trifluoroacetate]",30 to 100 µM
